From PubChem BioAssay (NCI)
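Results reflect a 48-hour exposure of cells in 96-well plates to compound at five concentrations. GI50: concentration for 50% inhibition of growth. TGI denotes the concentration required for complete inhibition of growth.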

Experiments:
Assay in all cases: NCI-60 cell line screen, 48 h
MALME-3M melanoma = test system: MALME-3M melanoma
PC-3 prostate = test system: PC-3 prostate
MDA-MB-468 breast = test system: MDA-MB-468 breast
SR leukemia = test system: SR leukemia
OVCAR-5 ovarian = test system: OVCAR-5 ovarian
786-0 renal = test system: 786-0 renal
TK-10 renal = test system: TK-10 renal
KM12 colon = test system: KM12 colon
RXF 393 renal = test system: RXF 393 renal
A498 renal = test system: A498 renal
OVCAR-3 ovarian = test system: OVCAR-3 ovarian
NCI-H460 lung = test system: NCI-H460 lung
HL-60(TB) leukemia = test system: HL-60(TB) leukemia
K-562 leukemia = test system: K-562 leukemia
CAKI-1 renal = test system: CAKI-1 renal
HT29 colon = test system: HT29 colon
CCRF-CEM leukemia = test system: CCRF-CEM leukemia
SK-MEL-2 melanoma = test system: SK-MEL-2 melanoma
UO-31 renal = test system: UO-31 renal
COLO 205 colon = test system: COLO 205 colon
MDA-MB-231 breast = test system: MDA-MB-231 breast
MCF7 breast = test system: MCF7 breast
HCC-2998 colon = test system: HCC-2998 colon
RPMI-8226 leukemia = test system: RPMI-8226 leukemia
HCT-15 colon = test system: HCT-15 colon
HCT-116 colon = test system: HCT-116 colon
SK-MEL-5 melanoma = test system: SK-MEL-5 melanoma
SK-MEL-28 melanoma = test system: SK-MEL-28 melanoma
HOP-92 NSCLC = test system: HOP-92 NSCLC
SF-539 CNS = test system: SF-539 CNS
OVCAR-8 ovarian = test system: OVCAR-8 ovarian
MDA-MB-435 = test system: MDA-MB-435
MOLT-4 leukemia = test system: MOLT-4 leukemia
SNB-19 CNS = test system: SNB-19 CNS
SF-268 CNS = test system: SF-268 CNS
SF-295 CNS = test system: SF-295 CNS
EKVX NSCLC = test system: EKVX NSCLC
BT-549 breast = test system: BT-549 breast
IGROV1 ovarian = test system: IGROV1 ovarian
HS 578T breast = test system: HS 578T breast
UACC-62 melanoma = test system: UACC-62 melanoma
A549 NSCLC = test system: A549 NSCLC
SN12C renal = test system: SN12C renal
T-47D breast = test system: T-47D breast
M14 melanoma = test system: M14 melanoma
DU-145 prostate = test system: DU-145 prostate
OVCAR-4 ovarian = test system: OVCAR-4 ovarian
SK-OV-3 ovarian = test system: SK-OV-3 ovarian
ACHN renal = test system: ACHN renal
SW-620 colon = test system: SW-620 colon
LOX IMVI melanoma = test system: LOX IMVI melanoma
HOP-62 NSCLC = test system: HOP-62 NSCLC
NCI-H23 lung = test system: NCI-H23 lung
UACC-257 melanoma = test system: UACC-257 melanoma
NCI-H226 lung = test system: NCI-H226 lung
NCI-H522 lung = test system: NCI-H522 lung
U251 CNS = test system: U251 CNS

Cn1cc(-c2cc(N)n3nc(-c4c[nH]c5ccc(F)cc45)cc3n2)c2cc(Br)cnc21
GI50 (MALME-3M melanoma): 10.4 µM
TGI (MALME-3M melanoma): 29.7 µM
GI50 (PC-3 prostate): 11.4 µM
TGI (PC-3 prostate): > 100 µM
GI50 (MDA-MB-468 breast): 4.64 µM
TGI (MDA-MB-468 breast): 18.5 µM
GI50 (SR leukemia): 4.36 µM
TGI (SR leukemia): > 100 µM
GI50 (OVCAR-5 ovarian): 21.9 µM
TGI (OVCAR-5 ovarian): > 100 µM
GI50 (786-0 renal): 8.47 µM
TGI (786-0 renal): 22.2 µM
GI50 (TK-10 renal): 26.5 µM
TGI (TK-10 renal): > 100 µM
GI50 (KM12 colon): 4 µM
TGI (KM12 colon): > 100 µM
GI50 (RXF 393 renal): 2.63 µM
TGI (RXF 393 renal): 8.47 µM
GI50 (A498 renal): > 100 µM
TGI (A498 renal): > 100 µM
GI50 (OVCAR-3 ovarian): > 100 µM
TGI (OVCAR-3 ovarian): > 100 µM
GI50 (NCI-H460 lung): 6.63 µM
TGI (NCI-H460 lung): 24.8 µM
GI50 (HL-60(TB) leukemia): 9.35 µM
TGI (HL-60(TB) leukemia): > 100 µM
GI50 (K-562 leukemia): 4.09 µM
TGI (K-562 leukemia): 50.2 µM
GI50 (CAKI-1 renal): 6.43 µM
TGI (CAKI-1 renal): > 100 µM
GI50 (HT29 colon): 5.04 µM
TGI (HT29 colon): 24.4 µM
GI50 (CCRF-CEM leukemia): 3.45 µM
TGI (CCRF-CEM leukemia): 20.2 µM
GI50 (SK-MEL-2 melanoma): 26.4 µM
TGI (SK-MEL-2 melanoma): > 100 µM
GI50 (UO-31 renal): 12.8 µM
TGI (UO-31 renal): 64.8 µM
GI50 (COLO 205 colon): 55.5 µM
TGI (COLO 205 colon): > 100 µM
GI50 (MDA-MB-231 breast): 5.28 µM
TGI (MDA-MB-231 breast): 24.5 µM
GI50 (MCF7 breast): 4.11 µM
TGI (MCF7 breast): 22.7 µM
GI50 (HCC-2998 colon): 4.2 µM
TGI (HCC-2998 colon): 20.3 µM
GI50 (RPMI-8226 leukemia): 5.67 µM
TGI (RPMI-8226 leukemia): 48.5 µM
GI50 (HCT-15 colon): 2.55 µM
TGI (HCT-15 colon): 10.7 µM
GI50 (HCT-116 colon): 32.2 µM
TGI (HCT-116 colon): > 100 µM
GI50 (SK-MEL-5 melanoma): 31.3 µM
TGI (SK-MEL-5 melanoma): > 100 µM
GI50 (SK-MEL-28 melanoma): 14.5 µM
TGI (SK-MEL-28 melanoma): 30.2 µM
GI50 (HOP-92 NSCLC): 20.4 µM
TGI (HOP-92 NSCLC): > 100 µM
GI50 (SF-539 CNS): 13.7 µM
TGI (SF-539 CNS): 41.2 µM
GI50 (OVCAR-8 ovarian): 16.8 µM
TGI (OVCAR-8 ovarian): 69.6 µM
GI50 (MDA-MB-435): 21.6 µM
TGI (MDA-MB-435): > 100 µM
GI50 (MOLT-4 leukemia): 2.42 µM
TGI (MOLT-4 leukemia): 21.6 µM
GI50 (SNB-19 CNS): 37.7 µM
TGI (SNB-19 CNS): > 100 µM
GI50 (SF-268 CNS): > 100 µM
TGI (SF-268 CNS): > 100 µM
GI50 (SF-295 CNS): 9.9 µM
TGI (SF-295 CNS): 39.1 µM
GI50 (EKVX NSCLC): > 100 µM
TGI (EKVX NSCLC): > 100 µM
GI50 (BT-549 breast): > 100 µM
TGI (BT-549 breast): > 100 µM
GI50 (IGROV1 ovarian): 14.3 µM
TGI (IGROV1 ovarian): > 100 µM
GI50 (HS 578T breast): > 100 µM
TGI (HS 578T breast): > 100 µM
GI50 (UACC-62 melanoma): 17.7 µM
TGI (UACC-62 melanoma): 72.3 µM
GI50 (A549 NSCLC): 16.4 µM
TGI (A549 NSCLC): > 100 µM
GI50 (SN12C renal): > 100 µM
TGI (SN12C renal): > 100 µM
GI50 (T-47D breast): 34 µM
TGI (T-47D breast): > 100 µM
GI50 (M14 melanoma): 12.3 µM
TGI (M14 melanoma): 27.4 µM
GI50 (DU-145 prostate): 80.8 µM
TGI (DU-145 prostate): > 100 µM
GI50 (OVCAR-4 ovarian): 22.5 µM
TGI (OVCAR-4 ovarian): > 100 µM
GI50 (SK-OV-3 ovarian): > 100 µM
TGI (SK-OV-3 ovarian): > 100 µM
GI50 (ACHN renal): 6.52 µM
TGI (ACHN renal): 43.4 µM
GI50 (SW-620 colon): 6.93 µM
TGI (SW-620 colon): 21.9 µM
GI50 (LOX IMVI melanoma): 1.96 µM
TGI (LOX IMVI melanoma): 3.69 µM
GI50 (HOP-62 NSCLC): 62.2 µM
TGI (HOP-62 NSCLC): > 100 µM
GI50 (NCI-H23 lung): 75.3 µM
TGI (NCI-H23 lung): > 100 µM
GI50 (UACC-257 melanoma): 23.3 µM
TGI (UACC-257 melanoma): > 100 µM
GI50 (NCI-H226 lung): 24.3 µM
TGI (NCI-H226 lung): > 100 µM
GI50 (NCI-H522 lung): 5.77 µM
TGI (NCI-H522 lung): 40.4 µM
GI50 (U251 CNS): 5.72 µM
TGI (U251 CNS): 28.9 µM
